From PubChem BioAssay (NCI)
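48-hour exposure; five concentrations; linearly interpolated endpoints. TGI: total growth inhibition.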

How the values were obtained:
Test in all cases: DTP human tumour cell line panel, 48 h
SK-OV-3 ovarian = test system: SK-OV-3 ovarian
RXF 393 renal = test system: RXF 393 renal
SF-295 CNS = test system: SF-295 CNS
EKVX NSCLC = test system: EKVX NSCLC
HS 578T breast = test system: HS 578T breast
LOX IMVI melanoma = test system: LOX IMVI melanoma
IGROV1 ovarian = test system: IGROV1 ovarian
COLO 205 colon = test system: COLO 205 colon
OVCAR-8 ovarian = test system: OVCAR-8 ovarian
NCI/ADR-RES ovarian = test system: NCI/ADR-RES ovarian
DU-145 prostate = test system: DU-145 prostate
HOP-62 NSCLC = test system: HOP-62 NSCLC
HCT-15 colon = test system: HCT-15 colon
RPMI-8226 leukemia = test system: RPMI-8226 leukemia
NCI-H23 lung = test system: NCI-H23 lung
OVCAR-4 ovarian = test system: OVCAR-4 ovarian
OVCAR-5 ovarian = test system: OVCAR-5 ovarian
SK-MEL-28 melanoma = test system: SK-MEL-28 melanoma
NCI-H522 lung = test system: NCI-H522 lung
MDA-MB-231 breast = test system: MDA-MB-231 breast
CAKI-1 renal = test system: CAKI-1 renal
SK-MEL-5 melanoma = test system: SK-MEL-5 melanoma
UO-31 renal = test system: UO-31 renal
BT-549 breast = test system: BT-549 breast
SNB-75 CNS = test system: SNB-75 CNS
MOLT-4 leukemia = test system: MOLT-4 leukemia
HL-60(TB) leukemia = test system: HL-60(TB) leukemia
TK-10 renal = test system: TK-10 renal
A549 NSCLC = test system: A549 NSCLC
HCC-2998 colon = test system: HCC-2998 colon
CCRF-CEM leukemia = test system: CCRF-CEM leukemia
MALME-3M melanoma = test system: MALME-3M melanoma
NCI-H460 lung = test system: NCI-H460 lung
SW-620 colon = test system: SW-620 colon
M14 melanoma = test system: M14 melanoma
ACHN renal = test system: ACHN renal
KM12 colon = test system: KM12 colon
MDA-MB-435 = test system: MDA-MB-435
UACC-257 melanoma = test system: UACC-257 melanoma
MCF7 breast = test system: MCF7 breast
SF-539 CNS = test system: SF-539 CNS
786-0 renal = test system: 786-0 renal
U251 CNS = test system: U251 CNS
HT29 colon = test system: HT29 colon
SK-MEL-2 melanoma = test system: SK-MEL-2 melanoma
SNB-19 CNS = test system: SNB-19 CNS
HOP-92 NSCLC = test system: HOP-92 NSCLC
HCT-116 colon = test system: HCT-116 colon
PC-3 prostate = test system: PC-3 prostate
SR leukemia = test system: SR leukemia
SN12C renal = test system: SN12C renal
K-562 leukemia = test system: K-562 leukemia
SF-268 CNS = test system: SF-268 CNS

Measured: TGI

Cc1cn(S(=O)(=O)c2ccccc2)c2c(OCc3ccccc3)cc(NC(=O)c3cc4cc([N+](=O)[O-])ccc4s3)cc12
not listed: KM12 colon | MDA-MB-435 | UACC-257 melanoma | MCF7 breast | SF-539 CNS | 786-0 renal | U251 CNS | HT29 colon | SK-MEL-2 melanoma | SNB-19 CNS | HOP-92 NSCLC | HCT-116 colon | PC-3 prostate | SR leukemia | SN12C renal | K-562 leukemia | SF-268 CNS
> 100 µM: all other assays above

C=CN(C=C)C(=O)Cn1cc(-c2ccccc2)nn1
not listed: SK-OV-3 ovarian | RXF 393 renal | HS 578T breast | UO-31 renal
> 100 µM: all other assays above
